Data on 16 compounds can be found in patent US12358879B2, “Heterocyclic compound” (Takeda Pharmaceutical Company Limited, priority 2019, dated 2025).

This assay has as its system Skin fibroblasts derived from FA patients (GM4078). Kind of assay: RSL3-induced cell death inhibitory activity in skin fibroblasts derived from FA patients (ATP, CellTiter-Glo). Conditions: 3 μmol/l RSL3, 24 hours. It is filed as cell-based, human. Here is the method:
The effects of the compounds according to the present disclosure were evaluated according to the literature (M. G. Cotticelli et al, J Pharmacol Exp Ther 2019, 369, 47-54.).
Skin fibroblasts derived from FA patients (Coriell Institute for Medical Research, GM4078) were cultured in a culture medium consisting of DMEM (Thermo Fisher Scientific, 11995-065), 10% fetal bovine serum (Thermo Fisher Scientific, 26140-087), 1% GlutaMAX supplement (Thermo Fisher Scientific, 35050-061) and 1% Penicillin-Streptomycin solution (FUJIFILM Wako Pure Chemical Corporation, 168-23191).
For assay, the fibroblasts in the above culture medium were seeded in a 384-well plate at 1,500 cells per well, and the test compound and 3 μmol/l (final concentration) RSL3 were added to the plate the day after seeding. The concentration of the test compound added to the assay plate was 0.01, 0.1, 1 and 10 μmol/l as 4 points, and DMSO was added as a negative control for the test compound and RSL3. Twenty-four hours after the addition of RSL3/the test compound, CellTiter-Glo Luminescent Cell Viability Assay solution (Promega, G7573) was added to the plate to lyse the cells, and ATP was measured as an index of cell viability by detecting chemiluminescence with a plate reader.
RSL3-induced cell death inhibitory activity of the test compound=((X−C)/(T−C))×100 • X: ATP in the RSL3 addition/the test compound addition group, • C: ATP in the RSL3 addition/the test compound non-addition group, • T: ATP in the RSL3 non-addition/the test compound non-addition group

For `COc1nn(C)cc1Nc1nn(CC2CC2(F)F)c2cc(C(C)(C)O)ccc12` (stereo not shown) [Example 77, 2-{1-[(2,2-difluorocyclopropyl)methyl]-3-[(3-methoxy-1-methyl-1H-pyrazol-4-yl)amino]-1H-indazol-6-yl}propan-2-ol], the “RSL3-induced cell death inhibitory activity (%) at each compound concentration (μmol/l)” value is, setting by setting: (compound 0.01 μmol/l) 17.7%; (compound 0.1 μmol/l) 46.4%; (compound 1 μmol/l) 76.2%; (compound 10 μmol/l) 77.1%.

With `COCc1nn(C)cc1Nc1nn(C(C)C)c2cc(C(C)(C)O)ccc12` [Example 85, 2-[3-{[3-(methoxymethyl)-1-methyl-1H-pyrazol-4-yl]amino}-1-(propan-2-yl)-1H-indazol-6-yl]propan-2-ol], the “RSL3-induced cell death inhibitory activity (%) at each compound concentration (μmol/l)” value was found to be 11.4% (compound 0.01 μmol/l), 43.2% (compound 0.1 μmol/l), 68.4% (compound 1 μmol/l) and 72.6% (compound 10 μmol/l).

Regarding `COc1c(Nc2nn(C)c3cc(C(C)(C)O)ccc23)cnn1CC(C)C` [Example 40, 2-(3-{[5-methoxy-1-(2-methylpropyl)-1H-pyrazol-4-yl]amino}-1-methyl-1H-indazol-6-yl)propan-2-ol], the “RSL3-induced cell death inhibitory activity (%) at each compound concentration (μmol/l)” value (compound 0.01 μmol/l) worked out at 40.7%, the “RSL3-induced cell death inhibitory activity (%) at each compound concentration (μmol/l)” value (compound 0.1 μmol/l) came to 63.0%, the “RSL3-induced cell death inhibitory activity (%) at each compound concentration (μmol/l)” value (compound 1 μmol/l) came to 98.1% and the “RSL3-induced cell death inhibitory activity (%) at each compound concentration (μmol/l)” value (compound 10 μmol/l) was found to be 94.9%.

Consider `COc1nn(C)cc1Nc1nn(C)c2ccc(C(C)(C)O)cc12` [Example 41, 2-{3-[(3-methoxy-1-methyl-1H-pyrazol-4-yl)amino]-1-methyl-1H-indazol-5-yl}propan-2-ol], for which the “RSL3-induced cell death inhibitory activity (%) at each compound concentration (μmol/l)” value reads like this: (compound 0.01 μmol/l) 21.3%; (compound 0.1 μmol/l) 40.8%; (compound 1 μmol/l) 58.1%; (compound 10 μmol/l) 71.7%.

As for `Cn1nc(Nc2cnn3c2CCCC3)c2ccc(C(C)(C)O)cc21` [Example 19, 2-{1-methyl-3-[(4,5,6,7-tetrahydropyrazolo[1,5-a]pyridin-3-yl)amino]-1H-indazol-6-yl}propan-2-ol], the “RSL3-induced cell death inhibitory activity (%) at each compound concentration (μmol/l)” value is, setting by setting: (compound 0.01 μmol/l) 11.1%; (compound 0.1 μmol/l) 32.1%; (compound 1 μmol/l) 58.9%; (compound 10 μmol/l) 78.9%.

As for `Cn1nc(Nc2cnn3c2OCCC3)c2cc(F)c(C(C)(C)O)cc21` [Example 56, 2-{3-[(6,7-dihydro-5H-pyrazolo[5,1-b][1,3]oxazin-3-yl)amino]-5-fluoro-1-methyl-1H-indazol-6-yl}propan-2-ol], the “RSL3-induced cell death inhibitory activity (%) at each compound concentration (μmol/l)” value reads like this: (compound 0.01 μmol/l) 47.4%; (compound 0.1 μmol/l) 69.3%; (compound 1 μmol/l) 94.2%; (compound 10 μmol/l) 90.3%.

As for `COCc1nn(C)cc1Nc1nn(C2CCC2)c2ccc(C(C)(C)O)cc12` [Example 88, 2-(1-cyclobutyl-3-{[3-(methoxymethyl)-1-methyl-1H-pyrazol-4-yl]amino}-1H-indazol-5-yl)propan-2-ol], the “RSL3-induced cell death inhibitory activity (%) at each compound concentration (μmol/l)” value was determined as 13.6% (compound 0.01 μmol/l), 61.2% (compound 0.1 μmol/l), 73.0% (compound 1 μmol/l) and 72.7% (compound 10 μmol/l).

For `COc1nn(C)cc1Nc1nn(CC2CC2)c2cc(C(C)(C)O)ccc12` [Example 49, 2-{1-(cyclopropylmethyl)-3-[(3-methoxy-1-methyl-1H-pyrazol-4-yl)amino]-1H-indazol-6-yl}propan-2-ol], the “RSL3-induced cell death inhibitory activity (%) at each compound concentration (μmol/l)” value is 37.8% (compound 0.01 μmol/l), 64.9% (compound 0.1 μmol/l), 96.5% (compound 1 μmol/l) and 93.0% (compound 10 μmol/l).

For `COc1cc(-c2cnn(C)c2)ccc1Nc1n[nH]c2cc(C(C)(C)O)ccc12` [Example 12, 2-{3-[2-methoxy-4-(1-methyl-1H-pyrazol-4-yl)anilino]-1H-indazol-6-yl}propan-2-ol], the “RSL3-induced cell death inhibitory activity (%) at each compound concentration (μmol/l)” value is, setting by setting: (compound 0.01 μmol/l) 33.2%; (compound 0.1 μmol/l) 57.8%; (compound 1 μmol/l) 79.9%; (compound 10 μmol/l) 85.9%.

Turning to `Cn1nc(Nc2cccc3c2OCC3)c2ccc(C(C)(C)O)cc21` [Example 2, 2-{3-[(2,3-dihydro-1-benzofuran-7-yl)amino]-1-methyl-1H-indazol-6-yl}propan-2-ol], the “RSL3-induced cell death inhibitory activity (%) at each compound concentration (μmol/l)” value turned out to be 4.7% (compound 0.01 μmol/l), 71.7% (compound 0.1 μmol/l), 95.4% (compound 1 μmol/l) and 83.5% (compound 10 μmol/l).

`CCn1nc(Nc2cn(C)nc2OC)c2ccc(C(C)(C)O)cc21` [Example 36, 2-{1-ethyl-3-[(3-methoxy-1-methyl-1H-pyrazol-4-yl)amino]-1H-indazol-6-yl}propan-2-ol]: the “RSL3-induced cell death inhibitory activity (%) at each compound concentration (μmol/l)” value is given as 14.0% (compound 0.01 μmol/l), 28.5% (compound 0.1 μmol/l), 55.8% (compound 1 μmol/l) and 86.0% (compound 10 μmol/l).

Regarding `COCc1nn(C)cc1Nc1nn(C2CCC2)c2cc(C(C)(C)O)ccc12` [Example 82, 2-(1-cyclobutyl-3-{[3-(methoxymethyl)-1-methyl-1H-pyrazol-4-yl]amino}-1H-indazol-6-yl)propan-2-ol], the “RSL3-induced cell death inhibitory activity (%) at each compound concentration (μmol/l)” value came to 1.9% (compound 0.01 μmol/l), 41.6% (compound 0.1 μmol/l), 64.0% (compound 1 μmol/l) and 73.8% (compound 10 μmol/l).

With `Cn1ncc(Nc2nn(C)c3cc(C(C)(C)O)ccc23)c1C(F)(F)F` [Example 9, 2-(1-methyl-3-{[1-methyl-5-(trifluoromethyl)-1H-pyrazol-4-yl]amino}-1H-indazol-6-yl)propan-2-ol], the “RSL3-induced cell death inhibitory activity (%) at each compound concentration (μmol/l)” value is, setting by setting: (compound 0.01 μmol/l) 30.0%; (compound 0.1 μmol/l) 61.8%; (compound 1 μmol/l) 96.1%; (compound 10 μmol/l) 84.6%.

In the case of `COCc1nn(C)cc1Nc1nn(CC2CC2)c2cc(C(C)(C)O)ccc12` [Example 84, 2-[1-(cyclopropylmethyl)-3-{[3-(methoxymethyl)-1-methyl-1H-pyrazol-4-yl]amino}-1H-indazol-6-yl]propan-2-ol], the “RSL3-induced cell death inhibitory activity (%) at each compound concentration (μmol/l)” value is, setting by setting: (compound 0.01 μmol/l) 12.4%; (compound 0.1 μmol/l) 47.5%; (compound 1 μmol/l) 75.7%; (compound 10 μmol/l) 73.8%.

As for `COc1nn(C)cc1Nc1nn(C2CCC2)c2ccc(C(C)(C)O)cc12` [Example 70, 2-{1-cyclobutyl-3-[(3-methoxy-1-methyl-1H-pyrazol-4-yl)amino]-1H-indazol-5-yl}propan-2-ol], the “RSL3-induced cell death inhibitory activity (%) at each compound concentration (μmol/l)” value runs as follows: (compound 0.01 μmol/l) 12.1%; (compound 0.1 μmol/l) 86.1%; (compound 1 μmol/l) 89.2%; (compound 10 μmol/l) 82.2%.

`Cn1cc(Nc2nn(C)c3cc(C(C)(C)O)ccc23)c(C(F)(F)F)n1` [Example 5, 2-(1-methyl-3-{[1-methyl-3-(trifluoromethyl)-1H-pyrazol-4-yl]amino}-1H-indazol-6-yl)propan-2-ol]: the “RSL3-induced cell death inhibitory activity (%) at each compound concentration (μmol/l)” value came out at 27.8% (compound 0.01 μmol/l), 53.9% (compound 0.1 μmol/l), 84.5% (compound 1 μmol/l) and 82.7% (compound 10 μmol/l).
